Measured values: patent publication US20170217976A1, “6-(AMINO ACID)-MORPHINAN DERIVATIVES IN COMBINATION WITH PERMEATION […] FOR USE AS AN ORALLY, […], TRA[…] NASALLY AD[…]” (C[…], priority 2014, published 2017)
Like-named read-outs stand apart in the source and are kept apart here.

Tests used:
[1] = target: T1, MOR (Rattus norvegicus, UniProt P33535); test: Opioid receptor binding, MOR, rat brain membranes
T1 construct: from tissue

[2] = target: T2, KOR (Cavia porcellus, UniProt P41144); test: Opioid receptor binding, KOR, guinea pig brain membranes
T2 construct: from tissue
T2 sequence (P41144 whole entry): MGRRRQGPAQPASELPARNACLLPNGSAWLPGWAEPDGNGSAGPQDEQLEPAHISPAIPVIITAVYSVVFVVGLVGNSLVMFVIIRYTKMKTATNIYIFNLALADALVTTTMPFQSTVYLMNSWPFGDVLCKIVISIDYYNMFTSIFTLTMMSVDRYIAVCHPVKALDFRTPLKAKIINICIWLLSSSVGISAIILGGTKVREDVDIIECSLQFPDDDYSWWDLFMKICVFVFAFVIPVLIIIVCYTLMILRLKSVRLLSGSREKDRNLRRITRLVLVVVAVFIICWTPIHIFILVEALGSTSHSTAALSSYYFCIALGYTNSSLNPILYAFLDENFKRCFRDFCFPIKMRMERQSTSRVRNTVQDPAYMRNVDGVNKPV

[3] = target: T3, DOR (Rattus norvegicus, UniProt P33533); test: Opioid receptor binding, DOR, rat brain membranes
T3 construct: from tissue
T3 sequence (P33533 whole entry): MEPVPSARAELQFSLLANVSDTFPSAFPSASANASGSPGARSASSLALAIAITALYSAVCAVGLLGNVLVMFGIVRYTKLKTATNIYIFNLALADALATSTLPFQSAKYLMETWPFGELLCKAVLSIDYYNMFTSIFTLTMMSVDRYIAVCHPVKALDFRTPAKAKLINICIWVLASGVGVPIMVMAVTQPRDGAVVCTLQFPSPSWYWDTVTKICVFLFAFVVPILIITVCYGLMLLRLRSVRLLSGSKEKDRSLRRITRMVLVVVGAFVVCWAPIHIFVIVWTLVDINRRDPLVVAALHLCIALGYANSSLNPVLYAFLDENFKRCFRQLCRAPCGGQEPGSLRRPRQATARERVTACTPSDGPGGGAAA

[4] = Binding Ki (nM) MOR, in vitro binding assay, rat brain membranes
[5] = Binding Ki (nM) KOR, in vitro binding assay, guinea pig brain membranes
[6] = Binding Ki (nM) DOR, in vitro binding assay, rat brain membranes
[7] = in vitro binding assay, rat brain membranes, read-out: Binding Ki (nM) MOR
[8] = in vitro binding assay, guinea pig brain membranes, read-out: Binding Ki (nM) KOR
[9] = in vitro binding assay, rat brain membranes, read-out: Binding Ki (nM) DOR
[10] = Binding Ki MOR, Table 1-4, rat brain membranes
[11] = Binding Ki KOR, Table 1-4, guinea pig brain membranes
[12] = Binding Ki DOR, Table 1-4, rat brain membranes
[13] = Binding Ki MOR, Table 2-6, rat brain membranes
[14] = Binding Ki KOR, Table 2-6, guinea pig brain membranes
[15] = Binding Ki DOR, Table 2-6, rat brain membranes

T1 sequence (P33535 whole entry): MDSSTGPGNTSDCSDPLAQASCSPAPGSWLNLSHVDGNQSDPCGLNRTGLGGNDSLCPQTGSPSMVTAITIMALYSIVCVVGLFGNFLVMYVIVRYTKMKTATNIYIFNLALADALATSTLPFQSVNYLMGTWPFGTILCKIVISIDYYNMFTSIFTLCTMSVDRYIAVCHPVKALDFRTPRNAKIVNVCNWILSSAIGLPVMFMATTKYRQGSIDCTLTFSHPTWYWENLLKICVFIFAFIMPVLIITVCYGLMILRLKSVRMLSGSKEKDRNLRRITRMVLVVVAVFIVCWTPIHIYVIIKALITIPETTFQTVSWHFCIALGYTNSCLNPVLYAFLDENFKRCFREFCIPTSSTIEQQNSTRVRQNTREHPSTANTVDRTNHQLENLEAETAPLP

Row | Structure (SMILES) | Ki [1, 4] [nM] | Ki [2, 5] [nM] | Ki [3, 6] [nM] | Ki [1, 13] [nM] | Ki [2, 14] [nM] | Ki [3, 15] [nM] | other results
1 | CO[C@@]12CC[C@@H](N[C@H](C(=O)OC(C)(C)C)C(C)C)[C@@H]3Oc4c(O)ccc5c4[C@@]31CCN(C)[C@@H]2C5 [29-t-Bu ester] | 1.03 | 214 | 0.86 | – | – | – | –
2 | CO[C@@]12CC[C@@H](N[C@@H](Cc3ccc(O)cc3)C(=O)OC(C)(C)C)[C@@H]3Oc4c(O)ccc5c4[C@@]31CCN(C)[C@@H]2C5 [10-t-Bu ester] | – | – | – | – | – | – | Ki [1, 7]: 1.53 nM; Ki [2, 8]: 184 nM; Ki [3, 9]: 1.88 nM
3 | CO[C@@]12CC[C@H](N[C@H](C(=O)O)[C@@H](C)O)[C@@H]3Oc4c(O)ccc5c4[C@@]31CCN(C)[C@@H]2C5 [Compound 34] | 1.03 | 120 | 4.13 | – | – | – | Ki [1, 10]: 1.03 nM; Ki [2, 11]: 120 nM; Ki [3, 12]: 4.13 nM
4 | CC(C)(C)OC(=O)[C@H](Cc1ccccc1)N[C@H]1CC[C@@]2(O)[C@H]3Cc4ccc(O)c5c4[C@@]2(CCN3CC2CC2)[C@H]1O5 [59-tBu ester] | – | – | – | 1 | 5 | 2.15 | –
5 | CO[C@@]12CC[C@H](N[C@@H](Cc3ccccc3)C(=O)OC(C)(C)C)[C@@H]3Oc4c(O)ccc5c4[C@@]31CCN(CC1CC1)[C@@H]2C5 [57-tBu ester] | – | – | – | 0.68 | 1.78 | 0.58 | –
6 | CCO[C@@]12CC[C@H](NCC(=O)O)[C@@H]3Oc4c(O)ccc5c4[C@@]31CCN(C)[C@@H]2C5 [Compound 5] | 0.57 | 45.2 | 10.3 | – | – | – | Ki [1, 10]: 0.57 nM; Ki [2, 11]: 45.2 nM; Ki [3, 12]: 10.3 nM
7 | CO[C@@]12CC[C@H](N[C@H](C(=O)OC(C)(C)C)[C@@H](C)O)[C@@H]3Oc4c(O)ccc5c4[C@@]31CCN(C)[C@@H]2C5 [34-t-Bu ester] | 0.2 | 9.24 | 0.37 | – | – | – | –
8 | CCO[C@@]12CC[C@H](N[C@@H](Cc3ccccc3)C(=O)OC(C)(C)C)[C@@H]3Oc4c(O)ccc5c4[C@@]31CCN(CC1CC1)[C@@H]2C5 [55-tBu ester] | – | – | – | 0.63 | 4.12 | 2.38 | –
9 | CN1CC[C@]23c4c5ccc(O)c4O[C@H]2[C@H](N[C@@H](Cc2ccccc2)C(=O)O)CC[C@@]3(O)[C@H]1C5 [Compound 12] | – | – | – | – | – | – | Ki ([1]; Table 1-4, rat brain membranes, read-out: Binding Ki MOR): 6.91 nM; Ki ([2]; Table 1-4, guinea pig brain membranes, read-out: Binding Ki KOR): 634 nM; Ki ([3]; Table 1-4, rat brain membranes, read-out: Binding Ki DOR): 8.29 nM
10 | CO[C@@]12CC[C@H](NCC(=O)OCc3ccccc3)[C@@H]3Oc4c(O)ccc5c4[C@@]31CCN(C)[C@@H]2C5 [HS730-benzyl ester] | 0.19 | 0.47 | 0.91 | – | – | – | –
11 | CCO[C@@]12CC[C@@H](N[C@@H](Cc3ccccc3)C(=O)OC(C)(C)C)[C@@H]3Oc4c(O)ccc5c4[C@@]31CCN(CC1CC1)[C@@H]2C5 [56-tBu ester] | – | – | – | 2 | 17.9 | 6.33 | –
12 | CO[C@@]12CC[C@@H](NCC(=O)NCC(=O)O)[C@@H]3Oc4c(O)ccc5c4[C@@]31CCN(C)[C@@H]2C5 [Compound 25] | – | – | – | – | – | – | Ki [1, 10]: 4.62 nM; Ki [2, 11]: 203 nM; Ki [3, 12]: 7.52 nM
13 | CO[C@@]12CC[C@@H](N[C@@H](CCC(N)=O)C(=O)O)[C@@H]3Oc4c(O)ccc5c4[C@@]31CCN(C)[C@@H]2C5 [Compound 18] | 2.48 | 290 | 4.87 | – | – | – | Ki [1, 10]: 2.48 nM; Ki [2, 11]: 290 nM; Ki [3, 12]: 4.87 nM
14 | CC[C@H](C)[C@H](N[C@H]1CC[C@@]2(OC)[C@H]3Cc4ccc(O)c5c4[C@@]2(CCN3C)[C@H]1O5)C(=O)O [Compound 42] | 0.84 | 131 | 3.2 | – | – | – | Ki [1, 10]: 0.84 nM; Ki [2, 11]: 131 nM; Ki [3, 12]: 3.2 nM
15 | CO[C@@]12CC[C@@H](N[C@@H](Cc3ccccc3)C(=O)OC(C)(C)C)[C@@H]3Oc4c(O)ccc5c4[C@@]31CCN(CC1CC1)[C@@H]2C5 [58-tBu ester] | – | – | – | 2.41 | 13.1 | 4.56 | –
16 | COC12CCC(NC(C(=O)O)C(C)C)C3Oc4c(O)ccc5c4C31CCN(CC1CC1)C2C5 (single isomer, unassigned) [Compound 68] | – | – | – | 0.44 | 3.34 | 0.53 | Ki ([1]; Binding Ki MOR, Table 1-6, rat brain membranes): 0.44 nM; Ki ([2]; Binding Ki KOR, Table 1-6, guinea pig brain membranes): 3.34 nM; Ki ([3]; Binding Ki DOR, Table 1-6, rat brain membranes): 0.53 nM
17 | CO[C@@]12CC[C@H](N[C@@H](CCC(=O)OC(C)(C)C)C(=O)OC(C)(C)C)[C@@H]3Oc4c(O)ccc5c4[C@@]31CCN(C)[C@@H]2C5 [19-t-Bu ester] | – | – | – | – | – | – | Ki [1, 7]: 0.27 nM; Ki [2, 8]: 18.3 nM; Ki [3, 9]: 0.32 nM
18 | CO[C@@]12CC[C@@H](N[C@@H](Cc3ccccc3)C(=O)O)[C@@H]3Oc4c(O)ccc5c4[C@@]31CCN(CC1CC1)[C@@H]2C5 [Compound 58] | – | – | – | – | – | – | Ki ([1]; Table 2-6, rat brain membranes, read-out: Binding Ki MOR): 1.23 nM; Ki ([2]; Table 2-6, guinea pig brain membranes, read-out: Binding Ki KOR): 8.42 nM; Ki ([3]; Table 2-6, rat brain membranes, read-out: Binding Ki DOR): 2.02 nM
